The source of these data is patent US12162858B2, “Quinoline derivatives as inhibitors of AXL/MER RTK and CSF1R” (QURIENT CO., LTD., priority 2018, dated 2024).

Read-outs that look alike come from different tables or passages of the source.

Experiment [1] addresses T1, CSF1R (Homo sapiens, UniProt P07333). Description: Cellular CSF1R inhibition ELISA (p-CSF1R, M-CSF-induced) using THP-1 cells. Also noted: THP-1 cells act as a model for human monocytes; endogenous in cells; host or cells: THP-1. Type of experiment: cell-based. The source says:
The normal proto-oncogene c-fms encodes the macrophage growth factor (M-CSF, also known as CSF1) receptor involved in growth, survival, and differentiation along the monocyte-macrophage lineage. THP-1 cells act as a model for human monocytes. It confirms that an increased phosphorylation of CSF1R (p-CSF1R) can be observed, when induced by CSF1R ligand, CSF1.
The THP-1 cells should be maintained from 5×10^5 to 1×10^6 cells/ml in the cell culture flask. After centrifugation, the supernatant is aspirated. The cell pellet is re-suspended with pre-warmed growth medium (RPMI1640, 10% FBS, 0.05 mM 2-Mercaptoethanol) and cells are separated by pipetting 6 times up and down with a 10 ml serological pipette. The cell suspension has to be diluted to a final concentration of 2×10^5 cells per 80 μl with pre-warmed growth medium. 80 μl of cell suspension is added to all wells of plates. Cell-plates are incubated at 37° C./5% CO2. Dissolve compound in 100% DMSO to make 10 mM stock solutions (Aliquots stored in the Nitrogen Cabinet). Dilute 10 mM compounds solutions for 2-fold in 100% DMSO to get 5 mM solutions (10 μl+10 μl DMSO), and then make a 3-fold serial dilution (10 μl+20 μl DMSO) for 10 doses. For reference compounds: Dilute 10 mM compounds solutions for 20-fold in 100% DMSO to get 0.5 mM solutions (2 μl+38 μl DMSO), and then make a 3-fold serial dilution (10 μl+20 μl DMSO) for 10 doses. Transfer 2 μl diluted compounds to 198 μl medium to get solution of 50 μM concentration at top point for compounds and 5 μM for reference compounds. Then transfer 20 μl cpd solution into assay plate (Duplicate wells). The plate is incubated at 37° C./5% CO2 for 24 h. The final concentration of DMSO in all wells is […]. Reconstitute human M-CSF at 50 μg/ml in sterile water. (Aliquots stored in −80° C.). 1:1000 dilute human M-CSF by fresh medium to 50 ng/ml. After 24 h compounds treatment, transfer 25 μl diluted human M-CSF (50 ng/ml) to cell plate according to the plate map. The final concentration of human M-CSF in all wells is 10 ng/ml.
The plates is incubated at 37° C./5% CO2 for 5 min. In the beginning the appropriate amount of lysis buffer complete (100 μL/well) is prepared and stored on ice. After 5 min human M-CSF stimulation, wash plates once with 300 μL ice cold PBS. Then 100 μl lysis buffer is added to each well. The plate is shacked for 40 min at 4° C. Plates can now be stored at −20° C. After equilibrate the micro-well strips at room temperature, break off the required number of micro-wells. Place the micro-wells in the strip holder. Unused micro-wells must be resealed and stored at 4° C. immediately. Add 90 μl of cell lysate to the appropriate well. Seal with tape and press firmly onto top of micro-wells. Incubate the plate for 2 h at 37° C. Gently remove the tape and wash wells 4 times with 1× Wash Buffer, 200 μl each time for each well. Add 100 μl of reconstituted Detection Antibody (green color) to each well. Seal with tape and incubate the plate at 37° C. for 1 h. Repeat wash procedure. Add 100 μl of reconstituted HRP-Linked secondary antibody to each well. Seal with tape and incubate the plate for 30 min at 37° C. Repeat wash procedure. Add 100 μl of TMB Substrate to each well. Seal with tape and incubate the plate for 10 min at 37° C. or 30 min at 25° C. Calculations and Formulas: The following calculations and formulas are used for data analysis using XL Fit software: The curve fitting was made using the Sigmoidal Dose-Response Model (Fit model, 205).
In general terms: ELISA stands for enzyme-linked immunosorbent assay.

Experiment [2] has as its target T1, CSF1R. The experiment can be described thus: KINOMEscan competition binding assay for CSF1R. The settings on record: @ 0.1 uM. Also noted: DNA tag for qPCR (not a peptide); host or cells: E. coli/T7 phage or HEK-293. How it is done: KINOMEscan™ is based on a competition binding assay that quantitatively measures the ability of a compound to compete with an immobilized, active-site directed ligand. The assay is performed by combining three components: DNA-tagged kinase; immobilized ligand; and a test compound. The ability of the test compound to compete with the immobilized ligand is measured via quantitative PCR of the DNA tag.
E. coli were grown to log-phase and infected with T7 phage and incubated with shaking at 32° C. until lysis. The lysates were centrifuged and filtered to remove cell debris. The remaining kinases were produced in HEK-293 cells and subsequently tagged with DNA for qPCR detection. Streptavidin-coated magnetic beads were treated with biotinylated small molecule ligands for 30 minutes at room temperature to generate affinity resins for kinase assays. The liganded beads were blocked with excess biotin and washed with blocking buffer (SeaBlock (Pierce), 1% BSA, 0.05% Tween 20, 1 mM DTT) to remove unbound ligand and to reduce non-specific binding. Binding reactions were assembled by combining kinases, liganded affinity beads, and test compounds in 1× binding buffer (20% SeaBlock, 0.17×PBS, 0.05% Tween 20, 6 mM DTT). Test compounds were prepared as 111× stocks in 100% DMSO. Kds were determined using an 11-point 3-fold compound dilution series with three DMSO control points. All compounds for Kd measurements are distributed by acoustic transfer (non-contact dispensing) in 100% DMSO. The compounds were then diluted directly into the assays such that the final concentration of DMSO was 0.9%. In case of % inhibition, test compounds were prepared as 40× stocks in 100% DMSO and directly diluted into the assay. All reactions performed in polypropylene 384-well plate. Each was a final volume of 0.02 ml. The assay plates were incubated at room temperature with shaking for 1 hour and the affinity beads were washed with wash buffer (1×PBS, 0.05% Tween 20). The beads were then re-suspended in elution buffer (1×PBS, 0.05% Tween 20, 0.5 μM non-biotinylated affinity ligand) and incubated at room temperature with shaking for 30 minutes. The kinase concentration in the eluates was measured by qPCR.
The CSF1R kinase binding activity results are shown in tables 1 (Kd) and 2 (percent inhibition at a concentration of 0.1 uM of compound to be tested).
Binding constants (Kds) were calculated with a standard dose-response curve using the Hill equation: […]
The Hill Slope was set to −1.
Curves were fitted using a non-linear least square fit with the Levenberg-Marquardt algorithm.
Binding % inhibition were calculated with as below:
[formula] • negative control=DMSO (100% Ctrl) • positive control=control compound (0% Ctrl)

Where [3] appears, read: read-out: CSF1R kinase binding activity, Percent (%) inhibition.
The mark [4] stands for this setting: read-out: CSF1R kinase binding activity, Range.

T1 sequence (P07333 20-972): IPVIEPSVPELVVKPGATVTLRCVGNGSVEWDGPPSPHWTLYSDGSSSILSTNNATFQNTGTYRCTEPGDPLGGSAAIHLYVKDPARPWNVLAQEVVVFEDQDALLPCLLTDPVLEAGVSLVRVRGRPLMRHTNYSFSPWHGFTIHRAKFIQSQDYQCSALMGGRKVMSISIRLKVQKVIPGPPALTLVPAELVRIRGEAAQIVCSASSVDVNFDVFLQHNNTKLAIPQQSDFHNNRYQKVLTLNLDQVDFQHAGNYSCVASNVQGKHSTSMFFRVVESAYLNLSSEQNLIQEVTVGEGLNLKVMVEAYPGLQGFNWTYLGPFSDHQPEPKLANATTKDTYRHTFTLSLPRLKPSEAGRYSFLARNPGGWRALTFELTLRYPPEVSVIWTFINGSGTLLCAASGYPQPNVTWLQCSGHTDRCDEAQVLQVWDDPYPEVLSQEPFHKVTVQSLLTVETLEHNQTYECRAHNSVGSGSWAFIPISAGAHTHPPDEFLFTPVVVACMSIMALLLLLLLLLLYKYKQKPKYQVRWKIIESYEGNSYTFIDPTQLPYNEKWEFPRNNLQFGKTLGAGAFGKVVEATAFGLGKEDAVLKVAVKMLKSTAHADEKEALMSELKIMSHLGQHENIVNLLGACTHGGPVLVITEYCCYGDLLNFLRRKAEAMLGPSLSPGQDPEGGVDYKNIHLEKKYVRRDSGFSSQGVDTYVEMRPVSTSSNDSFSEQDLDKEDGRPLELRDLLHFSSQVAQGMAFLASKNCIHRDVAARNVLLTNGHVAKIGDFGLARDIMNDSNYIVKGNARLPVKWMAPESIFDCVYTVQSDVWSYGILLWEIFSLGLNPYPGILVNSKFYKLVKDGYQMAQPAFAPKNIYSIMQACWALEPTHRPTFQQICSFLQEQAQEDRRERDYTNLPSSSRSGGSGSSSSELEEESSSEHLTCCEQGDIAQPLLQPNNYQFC

By IC50 is commonly meant the concentration that gives 50% inhibition. Low values mean higher potency, high ones lower potency. `COc1cc2nccc(Oc3ccc(NC(=O)c4nn(C5CC5)cc4OC(C)C)nc3)c2cc1OC` [Compound 108] displayed an IC50 at CSF1R [1] of under 500 nM. In addition, the inhibition at 0.1 µM on CSF1R [2] (setting [3]) was 96%; at CSF1R [2] (setting [4]) it was at least 80%.
For `COc1cc2nccc(Oc3ccc(NC(=O)c4nn(C5CC5)cc4OCC(F)F)nc3)c2cc1OC` [Compound 109], the IC50 at CSF1R [1] was under 500 nM. Further, the inhibition at 0.1 µM at CSF1R [2] (setting [3]) is 98%; on CSF1R [2] (setting [4]), at least 80%.
For `COc1cc2nccc(Oc3ccc(NC(=O)c4nn(C5CC5)cc4OCCF)nc3)c2cc1OC` [Compound 110], in that order: under 500 nM, 98% and at least 80%.
The molecule `COc1cc2nccc(Oc3ccc(NC(=O)c4nn(C5CC5)cc4OCC4CCC4)nc3)c2cc1OC` [Compound 111] returned an IC50 at CSF1R [1] of 500 to 1000 nM. Also, the inhibition at 0.1 µM was 89% on CSF1R [2] (setting [3]) and at least 80% at CSF1R [2] (setting [4]).
As to `COc1cc2nccc(Oc3ccc(NC(=O)c4nn(C5CC5)cc4OCC(F)(F)F)nn3)c2cc1OC` [Compound 112], the IC50 on CSF1R [1] lay within 500 to 1000 nM. Further, the inhibition at 0.1 µM at CSF1R [2] (setting [3]) was 97%; on CSF1R [2] (setting [4]) it was at least 80%.
In the same order, the values of `COc1cc2nccc(Oc3ccc(NC(=O)c4nn(C5CC5)cc4OCCF)nn3)c2cc1OC` [Compound 113] are under 500 nM, 82% and at least 80%.
In the case of `CCCn1cc(OCC(F)(F)F)c(C(=O)Nc2ccc(Oc3ccnc4cc(OC)c(OC)cc34)c(C(F)(F)F)c2)n1` [Compound 114], the IC50 at CSF1R [1] was at least 1000 nM. Also, the results for the inhibition at 0.1 µM on CSF1R [2] (setting [3]) and at CSF1R [2] (setting [4]) were 27% and under 50%, respectively.
On CSF1R [1], `COc1cc2nccc(Oc3ccc(NC(=O)c4nn(CCOC5CC5)cc4OCC(F)(F)F)c(F)c3)c2cc1OC` [Compound 115] yielded an IC50 of 500 to 1000 nM. The figures for the inhibition at 0.1 µM on CSF1R [2] (setting [3]) and at CSF1R [2] (setting [4]) were 94% and at least 80%, respectively.
As for `COc1cc2nccc(Oc3ccc(NC(=O)c4nn(CCOC5CC5)cc4OCC(F)(F)F)cc3F)c2cc1OC` [Compound 116], the concentration for half-maximal inhibition (IC50) against CSF1R [1] lay in the range of 500 to 1000 nM. Also, the inhibition at 0.1 µM at CSF1R [2] (setting [3]) is 93%; at CSF1R [2] (setting [4]), at least 80%.
`COc1cc2nccc(Oc3ccc(NC(=O)c4nn(CCOC5CC5)cc4OCC(F)(F)F)cc3C)c2cc1OC` [Compound 117] returned an IC50 on CSF1R [1] of under 500 nM. For the same molecule, the inhibition at 0.1 µM at CSF1R [2] (setting [3]) was 94%; at CSF1R [2] (setting [4]), at least 80%.
At CSF1R [1], `COc1cc2nccc(Oc3ccc(NC(=O)c4nn(CCOC5CC5)cc4OCC(F)(F)F)cc3)c2cc1OC` [Compound 118] displayed an IC50 of 500 to 1000 nM. Moreover, the values for the inhibition at 0.1 µM at CSF1R [2] (setting [3]) and on CSF1R [2] (setting [4]) were 93% and at least 80%, respectively.
Take `CNCCn1cc(OCC(F)(F)F)c(C(=O)Nc2ccc(Oc3ccnc4cc(OC)c(OC)cc34)cc2)n1` [Compound 119]: the IC50 at CSF1R [1] is at least 1000 nM. Further, the values for the inhibition at 0.1 µM on CSF1R [2] (setting [3]) and on CSF1R [2] (setting [4]) were 9% and under 50%, respectively.
With `COc1cc2nccc(Oc3ccc(NC(=O)c4nn(CCOC5CC5)cc4OCC(F)(F)F)nn3)c2cc1OC` [Compound 120], the IC50 against CSF1R [1] fell in the range of 500 to 1000 nM. Also, the figures for the inhibition at 0.1 µM on CSF1R [2] (setting [3]) and on CSF1R [2] (setting [4]) were 95% and at least 80%, respectively.
Turning to `COc1cc2nccc(Oc3ccc(NC(=O)c4nn(C5CCCC5)cc4OCC(F)(F)F)nn3)c2cc1OC` [Compound 121], the IC50 against CSF1R [1] is under 500 nM. Also, the inhibition at 0.1 µM was 98% at CSF1R [2] (setting [3]) and at least 80% at CSF1R [2] (setting [4]).
On CSF1R [1], `COc1cc2nccc(Oc3ccc(NC(=O)c4nn(C5CCNC5)cc4OCC(F)(F)F)nn3)c2cc1OC` (stereo not drawn) [Compound 122] had an IC50 of at least 1000 nM. Also, the inhibition at 0.1 µM was 19% at CSF1R [2] (setting [3]) and under 50% on CSF1R [2] (setting [4]).
As to `COc1cc2nccc(Oc3ccc(NC(=O)c4nn(CC5COC5)cc4OCC(F)(F)F)nn3)c2cc1OC` [Compound 123], at CSF1R [1], the IC50 is at least 1000 nM. For the same molecule, the results for the inhibition at 0.1 µM on CSF1R [2] (setting [3]) and on CSF1R [2] (setting [4]) were 72% and 50 to 80%, respectively.
For `COc1cc2nccc(Oc3ccc(NC(=O)c4nn(CC(C)C)cc4OCC(F)(F)F)nn3)c2cc1OC` [Compound 124], in that order: 500 to 1000 nM, 95% and at least 80%.
In turn, `COc1cc2nccc(Oc3ccc(NC(=O)c4nn(CCN)cc4OCC(F)(F)F)nn3)c2cc1OC` [Compound 125] returned an IC50 at CSF1R [1] of at least 1000 nM. Besides, the inhibition at 0.1 µM on CSF1R [2] (setting [3]) is 38%; on CSF1R [2] (setting [4]), under 50%.
Consider `COCCn1cc(OCC(F)(F)F)c(C(=O)Nc2ccc(Oc3ccnc4cc(OC)c(OC)cc34)nn2)n1` [Compound 126], for which the IC50 against CSF1R [1] is at least 1000 nM. The inhibition at 0.1 µM on CSF1R [2] (setting [3]) was 78%; at CSF1R [2] (setting [4]), 50 to 80%.
In the same order, the values of `CNCCn1cc(OCC(F)(F)F)c(C(=O)Nc2ccc(Oc3ccnc4cc(OC)c(OC)cc34)nn2)n1` [Compound 127] are at least 1000 nM, 38% and under 50%.
As to `COc1cc2nccc(Oc3ccc(NC(=O)c4nn(C5CCOC5)cc4OCC(F)(F)F)nn3)c2cc1OC` (stereo not drawn) [Compound 128], on CSF1R [1], the IC50 was under 500 nM. Besides, the results for the inhibition at 0.1 µM on CSF1R [2] (setting [3]) and on CSF1R [2] (setting [4]) were 94% and at least 80%, respectively.
In turn, `COc1cc2nccc(Oc3ccc(NC(=O)c4nn(CCO)cc4OCC(F)(F)F)cn3)c2cc1OC` [Compound 129] came in with an IC50 against CSF1R [1] of at least 1000 nM. Also, the inhibition at 0.1 µM on CSF1R [2] (setting [3]) is 24%; at CSF1R [2] (setting [4]) it was under 50%.
`COc1cc2nccc(Oc3ccc(NC(=O)c4nn(CCOC5CC5)cc4OCC(F)(F)F)cn3)c2cc1OC` [Compound 130] returned an IC50 at CSF1R [1] of at least 1000 nM. The inhibition at 0.1 µM at CSF1R [2] (setting [3]) was 41%; on CSF1R [2] (setting [4]), under 50%.
